Reference: patent publication US10653796B2, “Liposomes containing cell penetrating peptides and tetraetherlipids for the oral delivery of macromolecules” (Universität Heidelberg, priority 2015, dated 2020)

Experiments:
[1] = Radioactivity at determined time points after oral application of radiolabeled substances; assay type: in vivo; details: radiolabeled substance
[2] = Bioavailability (absolute) of oral liposomal Vancomycin versus i.v.; assay type: in vivo; details: male, Wistar, rat, whole blood; oral liposomal formulation containing 1 mol-% of the cyclic CPP-liposomes, rats; read-out: bioavailability (absolute) in comparison with the i.v. application
Description: The animal study was performed according to local authorities using male Wistar rats with a body weight of about 200-250 g. For the determination of the bioavailability (absolute) the glycopeptide antibiotic Vancomycin was radiolabeled with ^131I and incorporated into the liposomal formulation containing 1 mol-% of the cyclic CPP-phospholipid-conjugate and compared with Vancomycin i.v. as described previously. At several time points, the blood levels of Vancomycin were measured by direct counting of the radiolabeled sample. Briefly, groups (n≥3) of male Wistar rats were formed. Prior to 12 h of the experiment, the rats were kept without food, but with free access to water. Oral application of the liposomes took place by gavage. The blood was removed, weighed and the radioactivity was measured using a Berthold LB 951 G counter in comparison with standards. The blood-associated activity was related to the total injected dose (ID) and expressed as a percentage of the total injected dose per gram of tissue (% ID/g).

[3] = Oral availability of radiolabeled Adalimumab; assay type: in vivo, male Wistar rats; details: liposomes containing 1 mol-% cyclic CPP-conjugate vs radiolabeled free antibody, 6 h, rats
Description: The animal study was performed according to local authorities using male Wistar rats with a body weight of about 200-250 g. For the determination of the bioavailability (absolute), the antibody Adalimumab (Humira®) was radiolabeled with ^131I and incorporated into the liposomal formulation containing 1 mol-% of the cyclic CPP-phospholipid-conjugate and compared with the free antibody as described previously. After 6 h, the blood levels were measured by direct counting of the radiolabeled sample. Prior to 12 h of the experiment, the rats were kept without food, but with free access to water. Oral application of the liposomes and the radiolabeled free antibody took place by gavage. The blood was removed, weighed and the radioactivity was measured using a Berthold LB 951 G counter in comparison with standards. The blood-associated activity was related to the total injected dose (ID) and expressed as a percentage of the total injected dose per gram of tissue (% ID/g) (FIG. 16).

Compound | mucosal uptake by the liposomal formulations [1] | bioavailability [2] [%] | oral availability [3]
CCCCCCCCCCCCCCCC(=O)N[C@@H](CCC(=O)NCCCC[C@H](NC(=O)[C@H](C)NC(=O)[C@H](C)NC(=O)[C@H](CCC(N)=O)NC(=O)CNC(=O)[C@H](CCC(=O)O)NC(=O)[C@H](CC(C)C)NC(=O)[C@H](Cc1ccc(O)cc1)NC(=O)[C@H](CO)NC(=O)[C@H](CO)NC(=O)[C@@H](NC(=O)[C@H](CC(=O)O)NC(=O)[C@H](CO)NC(=O)[C@@H](NC(=O)[C@H](Cc1ccccc1)NC(=O)[C@@H](NC(=O)CNC(=O)[C@H](CCC(=O)O)NC(=O)[C@H](C)NC(=O)[C@@H](N)Cc1cnc[nH]1)[C@@H](C)O)[C@@H](C)O)C(C)C)C(=O)N[C@@H](CCC(=O)O)C(=O)N[C@@H](Cc1ccccc1)C(=O)N[C@H](C(=O)N[C@@H](C)C(=O)N[C@@H](Cc1c[nH]c2ccccc12)C(=O)N[C@@H](CC(C)C)C(=O)N[C@H](C(=O)N[C@@H](CCCNC(=N)N)C(=O)NCC(=O)N[C@@H](CCCNC(=N)N)C(=O)NCC(=O)O)C(C)C)[C@@H](C)CC)C(=O)O [Liraglutide] | strongly enhanced mucosal uptake |  | 
CN[C@H](CC(C)C)C(=O)N[C@H]1C(=O)N[C@@H](CC(N)=O)C(=O)N[C@H]2C(=O)N[C@H]3C(=O)N[C@H](C(=O)N[C@H](C(=O)O)c4cc(O)cc(O)c4-c4cc3ccc4O)[C@H](O)c3ccc(c(Cl)c3)Oc3cc2cc(c3O[C@@H]2O[C@H](CO)[C@@H](O)[C@H](O)[C@H]2O[C@H]2C[C@](C)(N)[C@H](O)[C@H](C)O2)Oc2ccc(cc2Cl)[C@H]1O [Vancomycin] |  | ≤ 50 | 
Adalimumab | strongly enhanced mucosal uptake |  | strong increase
